Assay results published in US10729688B2, “Hepatitis B antiviral agents” (Enanta Pharmaceuticals, Inc., priority 2018, dated 2020).

Tests used:
HBV = test: HepAD38 antiviral assay: reduction of viral product accumulation; assay type: cell-based; conditions: Hepatitis B virus, 120 h; HepAD38 cells, tetracycline removed; harvest five days after compound addition; viral product (virion DNA by qPCR, or HBsAg/HBeAg by ELISA) reduced by 50% relative to no drug controls
Protocol: (§1) Methods: HepAD38 cells were maintained as previously reported (Ladner et al, Antimicrob. Agents Chemother. 1997, 4, 1715). Briefly, cells were passaged upon attaining confluency in DMEM/F12 media in the presence of 10% FBS, Penn/Strep, 250 μg/mL G418, and 1 ug/ml tetracycline. Compounds were screened by first washing cells three times with PBS to remove tetracycline, and plating in 96 well plates at 35,000 cells/well. Compounds dissolved in DMSO were then diluted 1:200 into wells containing cells. Five days after compound addition, material was harvested for analysis. For an extended 8 day analysis, cells were plated and treated as described above, but media and compound were refreshed on day 2 and day 5 post initial treatment.
On harvest day, virion DNA was obtained by lysing with Sidestep Lysis and Stabilization Buffer and then quantified via quantitative real time PCR. Commercially available ELISA kits were used to quantitate the viral proteins HBsAg (Alpco) or HbeAg (US Biological) by following the manufacturer's recommended protocol after diluting samples to match the linear range of their respective assays. Irrespective of readout, compound concentrations that reduce viral product accumulation in the cell lysates or supernatants by 50% relative to no drug controls (EC50) are reported; EC50 ranges are as follows: A<0.1 μM; B 0.1-0.2 μM; C>0.2 μM.

[1] = Compound toxicity, ATPLite total ATP levels; assay type: cell-based; conditions: human, HepAD38 cells; 15,000 cells/well; three days after compound addition; total ATP levels reduced by 50% relative to no drug controls
Protocol: as §1
Compound toxicity was evaluated by seeding cells at 15,000 cells/well and treating with compound as described above.

O=C(Nc1cc(F)c(F)c(F)c1)N1Cc2c(N3CCCS3(=O)=O)cnn2C[C@@H]1c1ccccc1 [Example 71]
EC50 (HBV): < 0.1 µM

O=C(Nc1cc(F)c(F)c(F)c1)N1Cc2c(N3CCCS3(=O)=O)cnn2[C@@H]2CCC[C@@H]21 [Example 10]
EC50 (HBV): < 0.1 µM
CC50 at 3 days [1]: > 25 µM

C[C@H]1COC(=O)N1c1cnn2c1CN(C(=O)Nc1cc(F)c(F)c(F)c1)[C@H]1CCC[C@H]12 [Example 38]
EC50 (HBV): 0.1 to 0.2 µM

O=C(Nc1ccc(F)c(F)c1)N1Cc2c(-c3cscn3)cnn2[C@@H]2CCC[C@@H]21 [Example 14]
EC50 (HBV): < 0.1 µM

O=C(Nc1ccc(F)c(Cl)c1)N1Cc2c(-c3ccc(F)cc3)cnn2[C@H]2CCC[C@H]21 [Example 3]
EC50 (HBV): > 0.2 µM

O=C(Nc1cc(F)c(F)c(F)c1)N1Cc2c(N3C(=O)OC[C@@H]3Cc3ccccc3)cnn2[C@@H]2CCC[C@@H]21 [Example 64]
EC50 (HBV): 0.1 to 0.2 µM

CC(C)C[C@@H]1N(c2cnn3c2CN(C(=O)Nc2cc(F)c(F)c(F)c2)[C@H]2CCC[C@H]23)C(=O)OC1(C)C [Example 69]
EC50 (HBV): > 0.2 µM

COC(=O)Nc1cnn2c1CN(C(=O)Nc1cc(F)c(F)c(F)c1)[C@H]1CCC[C@H]12 [Example 41]
EC50 (HBV): > 0.2 µM

O=C(Nc1cc(F)c(F)c(F)c1)N1Cc2c(N3C(=O)C[C@H]4CCC[C@H]43)cnn2[C@@H]2CCC[C@@H]21 [Example 49]
EC50 (HBV): 0.1 to 0.2 µM

CC1(C)OC(=O)N(c2cnn3c2CN(C(=O)Nc2cc(F)c(F)c(F)c2)[C@H]2CCC[C@H]23)[C@H]1Cc1ccccc1 [Example 70]
EC50 (HBV): < 0.1 µM

CC(C)[C@H]1COC(=O)N1c1cnn2c1CN(C(=O)Nc1cc(F)c(F)c(F)c1)[C@H]1CCC[C@H]12 [Example 26]
EC50 (HBV): < 0.1 µM
CC50 at 3 days [1]: > 25 µM

O=C1OC2(CCCC2)CN1c1cnn2c1CN(C(=O)Nc1cc(F)c(F)c(F)c1)[C@H]1CCC[C@H]12 [Example 57]
EC50 (HBV): < 0.1 µM

O=C(Nc1ccc(F)c(Cl)c1)N1Cc2c(N3CCCS3(=O)=O)cnn2[C@H]2CCC[C@H]21 [Example 6]
EC50 (HBV): < 0.1 µM

O=C(Nc1ccc(F)c(F)c1)N1Cc2c(-c3ccc(F)cc3)cnn2[C@H]2CCC[C@H]21 [Example 2]
EC50 (HBV): > 0.2 µM

O=C1CC2(CC2)CN1c1cnn2c1CN(C(=O)Nc1cc(F)c(F)c(F)c1)[C@H]1CCC[C@H]12 [Example 50]
EC50 (HBV): < 0.1 µM

O=C(Nc1cc(F)c(F)c(F)c1)N1Cc2c(N3CCCS3(=O)=O)cnn2C[C@@H]1c1ccccn1 [Example 72]
EC50 (HBV): < 0.1 µM
CC50 at 3 days [1]: > 25 µM

CC(C)C[C@H]1COC(=O)N1c1cnn2c1CN(C(=O)Nc1cc(F)c(F)c(F)c1)[C@H]1CCC[C@H]12 [Example 68]
EC50 (HBV): 0.1 to 0.2 µM

O=C(Nc1ccc(F)c(Cl)c1)N1Cc2c(N3CCCS3(=O)=O)cnn2[C@@H]2CCC[C@@H]21 [Example 12]
EC50 (HBV): < 0.1 µM
CC50 at 3 days [1]: > 25 µM

O=C(Nc1ccc(F)c(F)c1)N1Cc2c(N3CCCS3(=O)=O)cnn2[C@H]2CCC[C@H]21 [Example 5]
EC50 (HBV): 0.1 to 0.2 µM

O=C(Nc1cc(F)c(F)c(F)c1)N1Cc2c(N3CCCS3(=O)=O)cnn2[C@H]2CCC[C@H]21 [Example 4]
EC50 (HBV): < 0.1 µM

O=C(Nc1cc(F)c(F)c(F)c1)N1Cc2c(-c3ccc(F)cc3)cnn2[C@@H]2CCC[C@@H]21 [Example 7]
EC50 (HBV): 0.1 to 0.2 µM

C[C@@H]1N(c2cnn3c2CN(C(=O)Nc2cc(F)c(F)c(F)c2)[C@H]2CCC[C@H]23)C(=O)OC1(C)C [Example 15]
EC50 (HBV): < 0.1 µM
CC50 at 3 days [1]: > 25 µM

O=C1CCCN1c1cnn2c1CN(C(=O)Nc1cc(F)c(F)c(F)c1)[C@H]1CCC[C@H]12 [Example 37]
EC50 (HBV): < 0.1 µM

O=C(Nc1cc(F)c(F)c(F)c1)N1Cc2c(N3C(=O)C[C@@H]4CCC[C@@H]43)cnn2[C@@H]2CCC[C@@H]21 [Example 48]
EC50 (HBV): < 0.1 µM

O=C(Nc1cc(F)c(F)c(F)c1)N1Cc2c(N3CCCS3(=O)=O)cnn2C[C@@H]1C1CC1 [Example 73]
EC50 (HBV): < 0.1 µM
CC50 at 3 days [1]: > 25 µM

O=C(Nc1cc(F)c(F)c(F)c1)N1Cc2c(N3CCCS3(=O)=O)cnn2[C@@H]2COC[C@@H]21 [Example 63]
EC50 (HBV): > 0.2 µM

O=C(Nc1ccc(F)c(F)c1)N1Cc2c(N3CCCS3(=O)=O)cnn2[C@@H]2CCC[C@@H]21 [Example 11]
EC50 (HBV): < 0.1 µM
CC50 at 3 days [1]: > 25 µM

O=C(Nc1cc(F)c(F)c(F)c1)N1Cc2c(N3CCCS3(=O)=O)cnn2[C@@H]2CCCC[C@@H]21 [Example 51]
EC50 (HBV): < 0.1 µM
CC50 at 3 days [1]: > 25 µM

C[C@@H]1N(c2cnn3c2CN(C(=O)Nc2ccc(F)c(F)c2)[C@H]2CCC[C@H]23)C(=O)OC1(C)C [Example 17]
EC50 (HBV): < 0.1 µM
CC50 at 3 days [1]: > 25 µM

O=C(Nc1cc(F)c(F)c(F)c1)N1Cc2c(N3CCCS3(=O)=O)cnn2C[C@@H]1c1ccn[nH]1 [Example 76]
EC50 (HBV): > 0.2 µM

C[C@@H]1N(c2cnn3c2CN(C(=O)Nc2ccc(F)c(Cl)c2)[C@H]2CCC[C@H]23)C(=O)OC1(C)C [Example 18]
EC50 (HBV): < 0.1 µM
CC50 at 3 days [1]: > 25 µM

CCC(=O)Oc1cnn2c1CN(C(=O)Nc1cc(F)c(F)c(F)c1)[C@H]1CCC[C@H]12 [Example 47]
EC50 (HBV): > 0.2 µM

O=C(Nc1cc(F)c(F)c(F)c1)N1Cc2c(N3C(=O)OC[C@@H]3C3CC3)cnn2[C@@H]2CCC[C@@H]21 [Example 58]
EC50 (HBV): 0.1 to 0.2 µM

O=C1OCCN1c1cnn2c1CN(C(=O)Nc1cc(F)c(F)c(F)c1)[C@H]1CCC[C@H]12 [Example 36]
EC50 (HBV): > 0.2 µM

O=C(Nc1cc(F)c(F)c(F)c1)N1Cc2c(N3C(=O)OC[C@@H]3C3CCCC3)cnn2[C@@H]2CCC[C@@H]21 [Example 56]
EC50 (HBV): 0.1 to 0.2 µM

O=C(Nc1cc(F)c(F)c(F)c1)N1Cc2c(N3C(=O)OC[C@H]3C3CC3)cnn2[C@@H]2CCC[C@@H]21 [Example 59]
EC50 (HBV): < 0.1 µM

O=C(Nc1cc(F)c(F)c(F)c1)N1Cc2c(-c3cscn3)cnn2[C@@H]2CCC[C@@H]21 [Example 13]
EC50 (HBV): < 0.1 µM

CC1(C)COC(=O)N1c1cnn2c1CN(C(=O)Nc1cc(F)c(F)c(F)c1)[C@H]1CCC[C@H]12 [Example 60]
EC50 (HBV): < 0.1 µM
CC50 at 3 days [1]: > 25 µM

O=C(Nc1cc(F)c(F)c(F)c1)N1Cc2c(N3C(=O)O[C@H]4CCCC[C@@H]43)cnn2[C@@H]2CCC[C@@H]21 [Example 54]
EC50 (HBV): < 0.1 µM

CCS(=O)(=O)N(C)c1cnn2c1CN(C(=O)Nc1cc(F)c(F)c(F)c1)[C@H]1CCC[C@H]12 [Example 62]
EC50 (HBV): > 0.2 µM

O=C(Nc1ccc(F)c(F)c1)N1Cc2c(N3CCCS3(=O)=O)cnn2CC12CC2 [Example 16]
EC50 (HBV): > 0.2 µM

O=C1OC(c2ccccc2)CN1c1cnn2c1CN(C(=O)Nc1cc(F)c(F)c(F)c1)[C@H]1CCC[C@H]12 (some centres unmarked) [Example 40]
EC50 (HBV): < 0.1 µM

O=C1OC(C2CCCC2)CN1c1cnn2c1CN(C(=O)Nc1cc(F)c(F)c(F)c1)[C@H]1CCC[C@H]12 (some centres unmarked) [Example 46]
EC50 (HBV): > 0.2 µM

O=C(Nc1cc(F)c(F)c(F)c1)N1Cc2c(-c3ccc(F)cc3)cnn2[C@H]2CCC[C@H]21 [Example 1]
EC50 (HBV): > 0.2 µM

CCS(=O)(=O)Nc1cnn2c1CN(C(=O)Nc1cc(F)c(F)c(F)c1)[C@H]1CCC[C@H]12 [Example 43]
EC50 (HBV): > 0.2 µM

O=C(Nc1cc(F)c(F)c(F)c1)N1Cc2c(N3CCCS3(=O)=O)cnn2C[C@@H]1c1ncc[nH]1 [Example 74]
EC50 (HBV): > 0.2 µM

CC(C)[C@@H]1N(c2cnn3c2CN(C(=O)Nc2cc(F)c(F)c(F)c2)[C@H]2CCC[C@H]23)C(=O)OC1(C)C [Example 65]
EC50 (HBV): < 0.1 µM

CC1(C)CN(c2cnn3c2CN(C(=O)Nc2cc(F)c(F)c(F)c2)[C@H]2CCC[C@H]23)C(=O)O1 [Example 19]
EC50 (HBV): < 0.1 µM
CC50 at 3 days [1]: > 25 µM

O=C(Nc1ccc(F)c(F)c1)N1Cc2c(-c3ccc(F)cc3)cnn2[C@@H]2CCC[C@@H]21 [Example 8]
EC50 (HBV): < 0.1 µM

O=C(Nc1cc(F)c(F)c(F)c1)N1Cc2c(N3C(=O)O[C@@H]4CCC[C@@H]43)cnn2[C@@H]2CCC[C@@H]21 [Example 39]
EC50 (HBV): < 0.1 µM

O=C(Nc1cc(F)c(F)c(F)c1)N1Cc2c(N3CCCS3(=O)=O)cnn2C[C@@H]1c1cnco1 [Example 75]
EC50 (HBV): 0.1 to 0.2 µM

CC1(C)CCN(c2cnn3c2CN(C(=O)Nc2cc(F)c(F)c(F)c2)[C@H]2CCC[C@H]23)C(=O)O1 [Example 67]
EC50 (HBV): < 0.1 µM

O=C(Nc1cc(F)c(F)c(F)c1)N1Cc2c(N3C(=O)OCC34CC4)cnn2[C@@H]2CCC[C@@H]21 [Example 61]
EC50 (HBV): 0.1 to 0.2 µM

O=C(Nc1cc(F)c(F)c(F)c1)N1Cc2c(N3C(=O)OC[C@@H]3c3ccccc3)cnn2[C@@H]2CCC[C@@H]21 [Example 52]
EC50 (HBV): > 0.2 µM

O=C1OC2(CC2)CN1c1cnn2c1CN(C(=O)Nc1cc(F)c(F)c(F)c1)[C@H]1CCC[C@H]12 [Example 55]
EC50 (HBV): < 0.1 µM

O=C1OCCCN1c1cnn2c1CN(C(=O)Nc1cc(F)c(F)c(F)c1)[C@H]1CCC[C@H]12 [Example 66]
EC50 (HBV): 0.1 to 0.2 µM

C[C@@H]1CN(c2cnn3c2CN(C(=O)Nc2cc(F)c(F)c(F)c2)[C@H]2CCC[C@H]23)C(=O)O1 [Example 44]
EC50 (HBV): < 0.1 µM

O=C1OC(c2ccccn2)CN1c1cnn2c1CN(C(=O)Nc1cc(F)c(F)c(F)c1)[C@H]1CCC[C@H]12 (some centres unmarked) [Example 45]
EC50 (HBV): < 0.1 µM

O=C(Nc1ccc(F)c(Cl)c1)N1Cc2c(-c3ccc(F)cc3)cnn2[C@@H]2CCC[C@@H]21 [Example 9]
EC50 (HBV): > 0.2 µM
